Consider twelve molecules from patent US7030150B2, “Benzimidazole compounds and antiviral uses thereof” (Trimeris, Inc., priority 2001, dated 2006).

A value given as a limit tells only on which side of the number the result lay.

The test system of one data set is picornaviruses. As to conditions: cited from earlier work.
A further data set deals with rhinoviruses. As to conditions: cited from earlier work.
The next data set relates to poliovirus type 1. As to conditions: monkey kidney and HeLa cell cultures; cited from earlier work.

As for `OC(c1nc2ccccc2[nH]1)C(O)c1nc2ccccc2[nH]1` (stereo not shown) [1,2-bis(2-benzimidazole)-1,2-ethanediol], the “antiviral activity against an assortment of picornaviruses” value (from here on “antiviral activity against an assortment”) with picornaviruses is listed as “active”.

Turning to `COc1ccc2[nH]c(C(O)C(O)c3nc4cc(OC)ccc4[nH]3)nc2c1` (stereo not shown) [1,2-(5-methoxy-2-benzimidazole)-1,2-ethanediol], the “inhibition of the cytopathic effect” value in the data set with rhinoviruses is given as 100%.

On to `OC(c1ccccc1)c1nc2ccccc2[nH]1` (stereo not drawn) [2-(α-hydroxybenzyl)benzimidazole], for which, in the data set on poliovirus type 1, the “inhibition of poliovirus type 1” value is “inhibits”. For the same molecule, the “antiviral activity against an assortment” value in the data set with picornaviruses is on record as “active”.

As for `c1ccc2[nH]cnc2c1` [benzimidazole], the “antiviral activity against an assortment” value with picornaviruses is recorded as “active”.

Broadly, the CC50 is the concentration that lowers cell viability or growth by half. With `CCCNCc1nc2ccccc2n1Cc1nc2ccccc2[nH]1` [compound 128], the CC50 with uninfected Hep2 cells is not below 100 µM.

`COc1cc2c(cc1OC)C(CC#N)N(Cc1nc3ccccc3n1Cc1nc3ccccc3[nH]1)CC2` (stereo not shown) [compound 223] yielded a CC50 in the data set on uninfected Hep2 cells not below 100 µM.

The molecule `O=[N+]([O-])c1ccc(Cn2c(CN3CCCCC3)nc3ccccc32)o1` [compound 77] came in with a CC50 with uninfected Hep2 cells not below 100 µM.

With `FC(F)(F)c1cccc(N2CCN(Cc3nc4ccccc4n3Cc3nc4ccccc4[nH]3)CC2)c1` [compound 219], the CC50 in the data set on uninfected Hep2 cells was not below 100 µM.

Molecule `c1csc(CNCc2nc3ccccc3n2Cc2nc3ccccc3[nH]2)c1` [compound 142] yielded a half-maximal cytotoxic concentration (CC50) in the data set with uninfected Hep2 cells not below 100 µM.

With `CSc1ccc(Cn2c(CN3CCCCC3)nc3ccccc32)cc1` [compound 61], in the data set on uninfected Hep2 cells, the CC50 came to 20 µM.

In turn, `c1ccc2[nH]c(Cn3c(CNC4CCCCC4)nc4ccccc43)nc2c1` [compound 165] gave a CC50 in the data set on uninfected Hep2 cells not below 100 µM.

As to `O=C1CCCN1CCCNCc1nc2ccccc2n1Cc1nc2ccccc2[nH]1` [compound 141], it took 35 µM to reach half-maximal cytotoxicity with uninfected Hep2 cells (CC50).
